According to publication PMC6337383, “Discovery of Potent Inhibitors for the Large Neutral Amino Acid Transporter 1 (LAT1) by Structure-Based Methods” (International Journal of Molecular Sciences, 2018):
Where “and” joins values, the source holds several entries; their conditions need not be identical. Equal entries are not always repeated. Entries after “also recorded” stand apart in the source; their conditions may differ. Values belong to the compound of their own block, whether it stands above or below them.

Key:
[1] = biological target: T1, recombinant human LAT1 (Homo sapiens, UniProt Q01650); settings: cited from earlier work
T1 construct: made in house; host or cells: E. coli
T1 sequence (Q01650 whole entry): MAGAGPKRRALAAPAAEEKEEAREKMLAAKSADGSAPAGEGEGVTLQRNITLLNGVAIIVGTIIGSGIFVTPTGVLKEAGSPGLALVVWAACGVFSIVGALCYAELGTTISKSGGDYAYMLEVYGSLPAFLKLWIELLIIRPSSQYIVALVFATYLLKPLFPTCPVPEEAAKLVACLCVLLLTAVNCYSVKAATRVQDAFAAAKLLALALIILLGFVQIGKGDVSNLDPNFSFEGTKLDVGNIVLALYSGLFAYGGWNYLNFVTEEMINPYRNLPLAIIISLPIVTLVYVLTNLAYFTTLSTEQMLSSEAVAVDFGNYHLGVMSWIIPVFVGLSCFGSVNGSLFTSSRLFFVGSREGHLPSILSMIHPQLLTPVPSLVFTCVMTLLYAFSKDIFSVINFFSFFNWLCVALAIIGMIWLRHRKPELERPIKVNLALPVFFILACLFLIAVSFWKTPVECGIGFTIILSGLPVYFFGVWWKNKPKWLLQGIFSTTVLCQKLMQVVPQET

[2] = tested on: LAT1; settings: experimental value, compared with MM-PBSA prediction
[3] = biological target: T1, recombinant human LAT1; assay: Inhibition of LAT1 mediated [3H]-His transport in proteoliposomes reconstituted with recombinant purified human LAT1; format: biochemical; design: Dose-response analysis, Mean / Dose-response analysis, single experiments: unit not given here; settings: for % Residual Activity: 100 µM concentration, n = 3, Table S6; for LAT1 inhibition, activity in words: 100 μM compound, [3H]-His uptake in proteoliposomes; for IC50: 5 μM [3H]-His, proteoliposomes containing 10 mM His, mean ± S.D., three experiments; for inhibition at 100 µM: 100 µM compound; for Dose-response analysis, single experiments: Exp. 1, Exp. 2, Exp. 3 in this order; for Dose-response analysis, Mean: mean of Exp. 1-3; for times more potent than 1: ratio of IC50 values versus 1 (BCH)
Description: All 30 compounds were evaluated for their potency to inhibit LAT1 mediated histidine transport in proteoliposomes reconstituted with recombinant purified human LAT1 (see Methods). […]
Human LAT1 was over-expressed in E. coli and was purified as previously described. In brief, solubilized cell lysate was centrifuged (12,000× g, 10 min, 4 °C); supernatant was applied on a His-Trap HP column (5 mL Ni Sepharose) connected to ÄKTA start system. The column was equilibrated with 10 mL buffer (20 mM Tris HCl pH 8.0, 10% glycerol, 200 mM NaCl, 0.1% sarkosyl) prior to supernatant application. The column was washed with 10 mL buffer (20 mM Tris HCl pH 8.0, 10% glycerol, 200 mM NaCl, 0.05% DDM, and 2 mM DTE) and the protein was eluted with the same buffer plus 400 mM imidazole. Purified protein was desalted, in order to remove imidazole, using a PD-10 column in a buffer containing 20 mM Tris HCl pH 8.0, 10% glycerol, 0.05% DDM and 10 mM DTE.
The purified human LAT1 was reconstituted by detergent removal approach using the batch-wise method, as previously described. In brief, the initial mixture contained: 4 μg of purified protein, 100 μL of 10% C12E8, 100 μL of 10% egg yolk phospholipids (w/v) in the form of liposomes that were prepared as previously described, 20 mM Tris HCl pH 7.5, and 10 mM L-His in a final volume of 700 μL. This mixture was incubated with 0.5 g of Amberlite XAD-4 for 90 min at 23 °C, 1200 rpm to retain detergent.
To perform transport assays, the external substrate was removed by gel filtration chromatography: 600 μL of proteoliposomes were passed through a Sephadex G-75 column (0.7 cm diameter × 15 cm height) pre-equilibrated with 20 mM Tris HCl pH 7.5 and a concentration of sucrose to balance internal osmolarity. Transport was started adding 5 μM [^3H]-His to proteoliposomes and stopped after 30 min according to the stop inhibitor method, as previously described. In brief, in controls 1.5 µM HgCl2 was added at time zero and radioactivity was subtracted to samples for calculating net transport. After stopping the transport reaction, 100 μL of proteoliposomes was subjected to gel filtration chromatography using a Sephadex G-75 column (0.6 cm diameter × 8 cm height), to separate the external from the internal radioactivity. Proteoliposomes were eluted with 1 mL 50 mM NaCl in 4 mL scintillation mixture and counted. […] Protein concentration was estimated by Chemidoc imaging system1 [104] to calculate the human LAT1 specific activity.

SMILES: FC(F)(F)Oc1ccc(/N=c2\ssnc2Cl)cc1 [Compound 3, (Z)-4-chloro-N-(4-(trifluoromethoxy)phenyl)-5H-1,2,3-dithiazol-5-imine]
inhibition of human LAT1 reconstituted in proteoliposomes, in words [1]: potent inhibition

SMILES: NC1(C(=O)O)CCc2ccccc2C1 (stereo not drawn) [Compound 8, 2-Amino-1,2,3,4-tetrahydro-2-naphthoic acid]
times more potent than 10 [2]: 9

% Residual Activity [3]: 74.23%
SMILES: N#Cc1c(-c2ccccc2-c2ccco2)cc(-c2cc(C(=O)O)[nH]n2)nc1N [Compound 13]

% Residual Activity [3]: 95.87%
SMILES: Cc1nnc(-c2ccccc2-c2ccc(CNS(C)(=O)=O)cc2)o1 [Compound 14]

% Residual Activity [3]: 92.21%
SMILES: C=CCN(Cc1cccc(OCC(N)=O)c1)Cc1ccccc1C [Compound 15]

% Residual Activity [3]: 95.1%
SMILES: CCn1cnnc1C(C)NC(=O)c1ccc2[nH]c(=O)c(=O)[nH]c2c1 (stereo not drawn) [Compound 16]

% Residual Activity [3]: 94.75%
SMILES: CCCCN(Cc1ccsc1)C(=O)c1ccc(NS(=O)(=O)CC)cc1 [Compound 17]

% Residual Activity [3]: 90.14%
SMILES: CCOc1ccc(Cl)cc1-c1cccc(OCC(N)=O)c1 [Compound 18]

% Residual Activity [3]: 93.06%
SMILES: CCOc1ccccc1CN(Cc1cc(O)c(OC)cn1)C1CC1 [Compound 19]

% Residual Activity [3]: 90.07%
SMILES: Cc1cc(OC(C)(C)C(=O)NCc2n[nH]c(=O)[nH]2)cc(C)c1Cl [Compound 20]

% Residual Activity [3]: 85.14%
SMILES: Cc1sc2ccccc2c1CN1CCCn2nc(C(O)CO)cc2C1 (stereo not drawn) [Compound 21]

% Residual Activity [3]: 93.36%
SMILES: O=C(c1ccc2[nH]c(CO)nc2c1)N(Cc1ccco1)Cc1cccs1 [Compound 22]

% Residual Activity [3]: 96.22%
SMILES: CN(Cc1ccon1)C(C(=O)O)c1ccc(-n2cccn2)cc1 (stereo not drawn) [Compound 23]

% Residual Activity [3]: 100.72%
SMILES: CCOc1ccc(Cl)cc1C(C(=O)O)N(C)Cc1cnccn1 (stereo not drawn) [Compound 24]

% Residual Activity [3]: 94.12%
SMILES: O=C(O)[C@@H]1C[C@H](n2cc(-c3ccccn3)nn2)CN1 [Compound 25]

% Residual Activity [3]: 89.37%
SMILES: Cc1cccnc1CN(C)C(C(=O)O)c1ccc(-n2cccn2)cc1 (stereo not drawn) [Compound 26]

LAT1 inhibition, activity in words [3]: slightly active
% Residual Activity [3]: 67.96%
SMILES: CC(C)COc1ccc(C(N)CC(=O)O)cc1 (stereo not drawn) [Compound 27]

IC50 [3]: 33200 ± 4500 nM
inhibition at 100 µM [3]: 80 to 100%
LAT1 inhibition, activity in words [3]: highly active
% Residual Activity [3]: 12.93%
Dose-response analysis, single experiments ([3]; 0.1 [] M compound): 98.56 and 118.69 and 87.20
Dose-response analysis, Mean ([3]; 0.1 [] M compound): 101.48
Dose-response analysis, single experiments ([3]; 0.2 [] M compound): 109.35 and 122.43 and 93.48
Dose-response analysis, Mean ([3]; 0.2 [] M compound): 108.42
Dose-response analysis, single experiments ([3]; 0.5 [] M compound): 112.59 and 110.90 and 85.27
Dose-response analysis, Mean ([3]; 0.5 [] M compound): 102.92
Dose-response analysis, single experiments ([3]; 1 [] M compound): 120.86 and 119.63 and 97.34
Dose-response analysis, Mean ([3]; 1 [] M compound): 112.61
Dose-response analysis, single experiments ([3]; 2.5 [] M compound): 84.89 and 85.98 and 94.20
Dose-response analysis, Mean ([3]; 2.5 [] M compound): 88.36
Dose-response analysis, single experiments ([3]; 5 [] M compound): 79.14 and 103.43 and 83.33
Dose-response analysis, Mean ([3]; 5 [] M compound): 88.63
Dose-response analysis, single experiments ([3]; 10 [] M compound): 96.40 and 89.72 and 73.19
Dose-response analysis, Mean ([3]; 10 [] M compound): 86.44
Dose-response analysis, single experiments ([3]; 25 [] M compound): 57.91 and 52.02 and 47.58
Dose-response analysis, Mean ([3]; 25 [] M compound): 52.51
Dose-response analysis, Mean ([3]; 50 [] M compound): 38.86
Dose-response analysis, Mean ([3]; 100 [] M compound): 24.50
SMILES: COc1ccc(CSCC(N)C(=O)O)cc1Br (stereo not drawn) [Compound 28]

% Residual Activity [3]: 98.42%
SMILES: CN(Cc1cc(Br)cc(Br)c1N)C1CCCCC1 [Compound 29]

% Residual Activity [3]: 94.08%
SMILES: CN1CCCC(n2nc(Cc3ccc(Cl)cc3)c3ccccc3c2=O)CC1 (stereo not drawn) [Compound 30]

% Residual Activity [3]: 91.83%
SMILES: O=C(O)CNC(=O)c1nc(Cl)c2ccccc2c1O [Compound 31]

% Residual Activity [3]: 53.11%
SMILES: NC1(C(=O)O)CCCC1Cc1ccc(Cl)cc1 (stereo not drawn) [Compound 32]
LAT1 inhibition, activity in words [3]: moderately active; also recorded: modest affinity

inhibition at 100 µM [3]: 80 to 90%
LAT1 inhibition, activity in words [3]: highly active
% Residual Activity [3]: 17.86%
SMILES: NC(CSCc1cccc2ccccc12)C(=O)O (stereo not drawn) [Compound 33]

LAT1 inhibition, activity in words [3]: slightly active
% Residual Activity [3]: 77.12%
SMILES: NC(Cc1cn(-c2ccccc2)nn1)C(=O)O (stereo not drawn) [Compound 34]

inhibition at 100 µM [3]: 80 to 90%
LAT1 inhibition, activity in words [3]: highly active
% Residual Activity [3]: 11.78%
SMILES: NC(Cc1cccc(OCc2ccccc2)c1)C(=O)O (stereo not drawn) [Compound 35]

IC50 [3]: 640 ± 120 nM
inhibition at 100 µM [3]: > 90%
% Residual Activity [3]: 0%
Dose-response analysis, single experiments ([3]; 0.1 [] M compound): 81.30 and 100.31 and 62.08
Dose-response analysis, Mean ([3]; 0.1 [] M compound): 81.23
Dose-response analysis, Mean ([3]; 0.2 [] M compound): 82.32
Dose-response analysis, Mean ([3]; 0.5 [] M compound): 45.71
Dose-response analysis, single experiments ([3]; 1 [] M compound): 38.13 and 55.14 and 40.82
Dose-response analysis, Mean ([3]; 1 [] M compound): 44.70
Dose-response analysis, Mean ([3]; 2.5 [] M compound): 28.38
Dose-response analysis, Mean ([3]; 5 [] M compound): 5.92
Dose-response analysis, single experiments ([3]; 10 [] M compound): 0.00
Dose-response analysis, Mean ([3]; 10 [] M compound): 0.00
Dose-response analysis, Mean ([3]; 25 [] M compound): 13.53
Dose-response analysis, Mean ([3]; 50 [] M compound): 2.08
Dose-response analysis, Mean ([3]; 100 [] M compound): 14.15
times more potent than 1 [3]: ~ 10
SMILES: N[C@@H](CCc1cc(Cl)cc(Cl)c1)C(=O)O [Compound 36]
LAT1 inhibition, activity in words [3]: highly active; also recorded: almost complete inhibition

LAT1 inhibition, activity in words [3]: slightly active
% Residual Activity [3]: 65.31%
SMILES: N[C@@H](Cc1ccc2ccccc2n1)C(=O)O [Compound 37]

inhibition at 100 µM [3]: 80 to 90%
% Residual Activity [3]: 13.17%
SMILES: N[C@@H](Cc1ccc(OCc2c(Cl)cccc2Cl)cc1)C(=O)O [Compound 38]

inhibition at 100 µM [3]: 80 to 90%
% Residual Activity [3]: 11.76%
SMILES: N[C@@H](CSC(c1ccccc1)(c1ccccc1)c1ccccc1)C(=O)O [Compound 39]

inhibition at 100 µM [3]: 80 to 90%
% Residual Activity [3]: 11.34%
SMILES: N[C@@H](Cc1cn(Cc2ccccc2)cn1)C(=O)O [Compound 40]

inhibition at 100 µM [3]: 80 to 90%
% Residual Activity [3]: 15.21%
SMILES: N[C@@H](Cc1cccc(C(F)(F)F)c1)C(=O)O [Compound 41]

IC50 [3]: 1480 ± 270 nM
inhibition at 100 µM [3]: > 90%
LAT1 inhibition, activity in words [3]: almost complete inhibition
% Residual Activity [3]: 7.83%
Dose-response analysis, single experiments ([3]; 0.1 [] M compound): 91.01 and 109.97 and 91.55
Dose-response analysis, Mean ([3]; 0.1 [] M compound): 97.51
Dose-response analysis, single experiments ([3]; 0.2 [] M compound): 77.34 and 82.24 and 73.67
Dose-response analysis, Mean ([3]; 0.2 [] M compound): 77.75
Dose-response analysis, single experiments ([3]; 0.5 [] M compound): 72.30 and 76.32 and 64.01
Dose-response analysis, Mean ([3]; 0.5 [] M compound): 70.88
Dose-response analysis, single experiments ([3]; 1 [] M compound): 64.39 and 51.09 and 41.55
Dose-response analysis, Mean ([3]; 1 [] M compound): 52.34
Dose-response analysis, single experiments ([3]; 2.5 [] M compound): 42.45 and 36.45 and 24.15
Dose-response analysis, Mean ([3]; 2.5 [] M compound): 34.35
Dose-response analysis, Mean ([3]; 5 [] M compound): 29.11
Dose-response analysis, Mean ([3]; 10 [] M compound): 18.24
Dose-response analysis, Mean ([3]; 25 [] M compound): 21.07
Dose-response analysis, single experiments ([3]; 50 [] M compound): 12.95 and 13.71 and 13.30
Dose-response analysis, Mean ([3]; 50 [] M compound): 13.32
Dose-response analysis, Mean ([3]; 100 [] M compound): 14.52
times more potent than 1 [3]: ~four times more potent
SMILES: N[C@@H](Cc1c[nH]c2ccc(OCc3ccccc3)cc12)C(=O)O [Compound 42]
